The record followed here is US9567339B2, “Primary carboxamides as BTK inhibitors” (AbbVie Inc., priority 2013, dated 2017).

Some results are limits rather than exact numbers.

In the first assay the target is BTK, recombinant human catalytic domain (aa 393-659) (Homo sapiens (Human), UniProt Q06187). Kind of assay: In vitro BTK kinase activity measured by time-resolved fluorescence resonance energy transfer (trFRET). It is filed as biochemical. Conditions: read-out: Btk IC50.
BTK, recombinant human catalytic domain (aa 393-659), sequence (Q06187 393-659): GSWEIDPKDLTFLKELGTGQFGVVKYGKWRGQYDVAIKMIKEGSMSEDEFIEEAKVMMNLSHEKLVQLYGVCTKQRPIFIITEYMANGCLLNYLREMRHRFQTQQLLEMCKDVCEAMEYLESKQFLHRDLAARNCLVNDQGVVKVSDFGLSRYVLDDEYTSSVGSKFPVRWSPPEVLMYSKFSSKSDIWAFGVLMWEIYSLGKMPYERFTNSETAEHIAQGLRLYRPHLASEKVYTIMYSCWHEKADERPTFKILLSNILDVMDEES
Consider `NC(=O)c1ccc(N2CCC[C@@H](n3cnc4ccccc4c3=O)C2)c2cc(-c3ccc(F)cc3)[nH]c12` [O.1.14*], for which the IC50 (commonly the concentration needed to halve the response being measured) was in the range of 100 to 1000 nM.
In the case of `C=CC(=O)Nc1cccc(-c2ccc(C(N)=O)c3[nH]c(C4=CCN(S(C)(=O)=O)CC4)cc23)c1C` [D.7.6], the IC50 was < 100 nM.
Still for that read-out and setting: next, `C=CC(=O)Nc1ccc(F)c(-c2ccc(C(N)=O)c3[nH]ccc23)c1` [E.1.32]: 100 to 1000 nM.
With `C=CC(=O)Nc1cc(-c2ccc(C(N)=O)c3[nH]ccc23)ccc1Cl` [E.1.19], the IC50 was < 100 nM.
Still for that read-out and setting: next, `C=CC(=O)Nc1cc(OCc2nccs2)ccc1-c1ccc(C(N)=O)c2[nH]ccc12` [E.1.16]: 1000 to 10000 nM; `Cc1nc(C(=O)Nc2cccc(-c3ccc(C(N)=O)c4[nH]c(C5=CCN(S(C)(=O)=O)CC5)cc34)c2C)cs1` [D.7.30]: < 100 nM.
Take `C=CC(=O)N1CC[C@H](c2ccc(C(N)=O)c3[nH]c(C)cc23)C1` [E.9.41*]: the IC50 fell in the range of 100 to 1000 nM.
On the same count and under the same terms, next, `C=CC(=O)N1CC[C@@H](c2ccc(C(N)=O)c3[nH]c(-c4cc5n(n4)CCOC5)cc23)C1` [E.9.27]: < 100 nM.
The same measure, in the same setting: next, `C=CC(=O)N[C@@H]1CC[C@@H](c2ccc(C(N)=O)c3[nH]ccc23)C1` [E.9.50]: < 100 nM; `CC(=O)N1CC=C(c2cc3c(-c4cccc(-n5cnc6ccccc6c5=O)c4C)ccc(C(N)=O)c3[nH]2)C1` [E.8.1]: < 100 nM; `C=CC(=O)N1C[C@@H](CO)C[C@H](c2ccc(C(N)=O)c3[nH]ccc23)C1` [E.9.46]: 1000 to 10000 nM.
On to `Cn1cc(-c2cc3c(N4CCC[C@@H](N5Cc6ccc(F)cc6C5=O)C4)ccc(C(N)=O)c3[nH]2)cn1` [O.1.18*], for which the IC50 fell in the range of 1000 to 10000 nM.
On the same count and under the same terms, the figure for `C=CC(=O)Nc1cc(F)c(F)c(-c2ccc(C(N)=O)c3[nH]ccc23)c1` [E.1.21] is < 100 nM; for `C=CC(=O)Nc1cc(C)cc(-c2ccc(C(N)=O)c3[nH]ccc23)c1` [E.1.29] it is 100 to 1000 nM; for `C=CC(=O)N(CC1CCCC1)c1cccc(-c2ccc(C(N)=O)c3[nH]ccc23)c1` [E.1.34, 4-(3-(N-(cyclopentylmethyl)acrylamido)phenyl)-1H-indole-7-carboxamide] it is 1000 to 10000 nM.
Still for that read-out and setting: the figure for `C=CC(=O)N1CC[C@H](c2ccc(C(N)=O)c3[nH]c(-c4cnn(C)c4)cc23)C1` [E.9.48] is < 100 nM.
Same read-out and setting: next, `Cn1cc(-c2cc3c(N4CCC[C@@H](NC(=O)c5ccc(OC(F)(F)F)cc5)C4)ccc(C(N)=O)c3[nH]2)cn1` [O.1.24*]: 100 to 1000 nM; `Cc1c(NC(=O)C2CCN(C)CC2)cccc1-c1ccc(C(N)=O)c2[nH]c(C3=CCN(S(C)(=O)=O)CC3)cc12` [D.7.36]: < 100 nM.
As to `C=CC(=O)N1CCC[C@@H](c2cnc(C(N)=O)c3sc(-c4cnn(C)c4)nc23)C1` [E.9.37], the IC50 is < 100 nM.
Still for that read-out and setting: next, `C=CC(=O)Nc1cccc(-c2ccc(C(N)=O)c3[nH]ccc23)c1F` [E.1.33]: < 100 nM; `CCOC(=O)N1CC=C(c2cc3c(-c4cccc(-n5cnc6ccccc6c5=O)c4C)ccc(C(N)=O)c3[nH]2)C1` [E.6.1]: < 100 nM.
On the same count and under the same terms, the figure for `Cn1cc(-c2cc3c(N4CCC[C@@H](NC(=O)c5ccc(C6CC6)cc5)C4)ccc(C(N)=O)c3[nH]2)cn1` [O.1.25*] is < 100 nM.
Still for that read-out and setting: next, `Cc1c(NC(=O)c2ccc(C(F)F)cc2)cccc1-c1ccc(C(N)=O)c2[nH]ccc12` [O.1.1]: 100 to 1000 nM.
For the molecule `C=CC(=O)Nc1cc(C#N)cc(-c2ccc(C(N)=O)c3[nH]ccc23)c1` [E.1.26], the IC50 lay within 100 to 1000 nM.
On the same count and under the same terms, next, `Cc1c(NC(=O)c2nccs2)cccc1-c1ccc(C(N)=O)c2[nH]c(-c3ccccc3CNC(=O)CCl)cc12` [E.4.1]: 100 to 1000 nM.
The same measure, in the same setting: the figure for `CCC(=O)NCc1ccccc1-c1cc2c(-c3cccc(NC(=O)c4nccs4)c3C)ccc(C(N)=O)c2[nH]1` [E.4.2] is 1000 to 10000 nM; for `C=CC(=O)N1CC(N(C)c2ccc(C(N)=O)c3[nH]c(-c4ccnn4C)cc23)C1` [E.9.16] it is < 100 nM; for `Cc1c(-c2ccc(C(N)=O)c3[nH]c(C4=CCNCC4)cc23)cccc1-n1cnc2ccccc2c1=O` [G.1.1, 4-(2-methyl-3-(4-oxoquinazolin-3(4H)-yl)phenyl)-2-(1,2,3,6-tetrahydropyridin-4-yl)-1H-indole-7-carboxamide] it is < 100 nM.

Staying with this assay, now noted: trFRET, 0.001 mM ATP, biotin-TYR1 peptide substrate; read-out: Btk IC50.
`CS(=O)(=O)N1CC=C(c2cc3c(N4CCC[C@@H](NC(=O)c5nccs5)C4)ccc(C(N)=O)c3[nH]2)CC1` [Example 13A, (R)—N-(1-(7-Carbamoyl-2-(1-(methylsulfonyl)-1,2,3,6-tetrahydropyridin-4-yl)-1H-indol-4-yl)piperidin-3-yl)thiazole-2-carboxamide]: the IC50 was < 100 nM.
On the same count and under the same terms, next, `Cc1c(NC(=O)c2nccs2)cccc1-c1ccc(C(N)=O)c2[nH]c(-c3ccccc3CNC(=O)CCN(C)C)cc12` [D.1.4]: 100 to 1000 nM; `C=CC(=O)N1CC(N(C)c2cnc(C(N)=O)c3[nH]ccc23)C1` [Example 29, 4-((1-Acryloylazetidin-3-yl)(methyl)amino)-1H-pyrrolo[2,3-c]pyridine-7-carboxamide]: < 100 nM; `C=CC(=O)N[C@@H]1CC[C@H](c2ccc(C(N)=O)c3[nH]ccc23)C1` (relative stereo) [Example 10, 4-(cis-3-Acrylamidocyclopentyl)-1H-indole-7-carboxamide]: < 100 nM.
The same measure, in the same setting: the figure for `Cc1c(-c2ccc(C(N)=O)c3[nH]c(-c4cccnc4)cc23)cccc1N1Cc2ccc(F)cc2C1=O` [A.7.6] is < 100 nM; for `C/C=C/C(=O)Nc1cccc(-c2ccc(C(N)=O)c3[nH]ccc23)c1C` [D.8.9] it is 100 to 1000 nM.
In the case of `Cc1ccc(-c2cc3c(-c4c(C)noc4C)ccc(C(N)=O)c3[nH]2)cc1` [A.8.2], the IC50 was in the range of 100 to 1000 nM.
Turning to `C=CC(=O)N1CCC[C@H](c2ccc(C(N)=O)c3[nH]ccc23)C1` [30 (R), (R)-4-(1-Acryloylpiperidin-3-yl)-1H-indole-7-carboxamide], the IC50 was 100 to 1000 nM.
The same measure, in the same setting: the figure for `Cc1ccc2c(c1)C(=O)N(c1cccc(-c3ccc(C(N)=O)c4[nH]c(-c5cccnc5)cc34)c1C)C2` [A.7.5] is < 100 nM; for `Cc1ccc(-c2cc3c(-c4cnn(C)c4)ccc(C(N)=O)c3[nH]2)cc1` [A.8.7] it is 100 to 1000 nM.
As for `Cc1c(N)cccc1-c1cnc(C(N)=O)c2[nH]ccc12` [Example 2, 4-(3-Amino-2-methylphenyl)-1H-pyrrolo[2,3-c]pyridine-7-carboxamide], the IC50 was 1000 to 10000 nM.
Still for that read-out and setting: next, `C=CC(=O)Nc1cccc(-c2ccc(C(N)=O)c3[nH]c(-c4c(C)noc4C)cc23)c1C` [A.1.1]: 100 to 1000 nM; `C=CC(=O)Nc1cccc(-c2ccc(C(N)=O)c3[nH]c(-c4ccc(C(=O)N(C)C)cc4)cc23)c1C` [A.1.35]: < 100 nM; `C=CC(=O)Nc1cccc(-c2ccc(C(N)=O)c3[nH]c(C4=CCN(S(C)(=O)=O)CC4)cc23)c1` [A.4.15]: < 100 nM.
Same read-out and setting: the figure for `Cc1c(NC(=O)c2nccs2)cccc1-c1ccc(C(N)=O)c2[nH]cc(NC(=O)CC#N)c12` [D.3.1] is 1000 to 10000 nM; for `Cc1c(-c2ccc(C(N)=O)c3[nH]c(-c4cccnc4)cc23)cccc1N1Cc2ccccc2C1=O` [A.7.4] it is < 100 nM.
Same read-out and setting: next, `C=CC(=O)Nc1cccc(-c2ccc(C(N)=O)c3[nH]c(-c4c(C)n[nH]c4C)cc23)c1C` [A.1.3]: 100 to 1000 nM; `CS(=O)(=O)N1CC=C(c2cc3c(-c4cccc(Nc5ccnc(C#N)n5)c4)ccc(C(N)=O)c3[nH]2)CC1` [A.4.8]: < 100 nM; `C=CC(=O)Nc1cccc(-c2ccc(C(N)=O)c3[nH]c(-c4ccnc(OC)c4)cc23)c1C` [A.1.13]: < 100 nM.
As to `C=CC(=O)N1CCc2cc(C(N)=O)c3[nH]ccc3c21` [Example 4, 1-Acryloyl-1,2,3,6-tetrahydropyrrolo[2,3-e]indole-5-carboxamide], the IC50 was 100 to 1000 nM.
Still for that read-out and setting: next, `Cc1c(NC(=O)CCN2CCCC2)cccc1-c1ccc(C(N)=O)c2[nH]ccc12` [D.8.14]: 1000 to 10000 nM; `C=CC(=O)Nc1cc(NCc2nccs2)cc(-c2ccc(C(N)=O)c3[nH]c(C4=CCN(S(C)(=O)=O)CC4)cc23)c1` [Example 6, 4-(3-Acrylamido-5-(thiazol-2-ylmethylamino)phenyl)-2-(1-(methylsulfonyl)-1,2,3,6-tetrahydropyridin-4-yl)-1H-indole-7-carboxamide]: < 100 nM.
On the same count and under the same terms, the figure for `NC(=O)c1ccc(-c2cccc(NC(=O)/C=C/C(=O)NC3CC3)c2)c2cc[nH]c12` [D.4.4] is 1000 to 10000 nM; for `Cc1c(NC(=O)/C=C/c2ccccn2)cccc1-c1ccc(C(N)=O)c2[nH]ccc12` [D.8.3] it is 100 to 1000 nM; for `C=CC(=O)Nc1cccc(-c2ccc(C(N)=O)c3[nH]c(-c4ccc(C(=O)N5CCCC5)cc4)cc23)c1C` [A.1.38] it is < 100 nM.
For the molecule `C=CC(=O)Nc1cccc(-c2ccc(C(N)=O)c3[nH]c(-c4ccccc4OC)cc23)c1C` [A.1.43], the IC50 is < 100 nM.
Still for that read-out and setting: next, `Cc1c(NC(=O)c2cc3c(s2)CCCC3)cccc1-c1ccc(C(N)=O)c2[nH]c(-c3cccnc3)cc12` [A.7.3]: < 100 nM; `C=CC(=O)N[C@H]1CCC[C@H](c2ccc(C(N)=O)c3[nH]ccc23)C1` (relative stereo) [Example 9, 4-(trans-3-Acrylamidocyclohexyl)-1H-indole-7-carboxamide]: 100 to 1000 nM.
For the molecule `NC(=O)c1ccc(-c2cncnc2)c2cc(-c3ccc(F)cc3)[nH]c12` [A.9.1], the IC50 fell in the range of 100 to 1000 nM.
Same read-out and setting: the figure for `NC(=O)c1ccc(-c2ccnc(N)c2)c2cc[nH]c12` [A.5.3, 4-(2-aminopyridin-4-yl)-1H-indole-7-carboxamide] is 1000 to 10000 nM; for `Cn1cc(-c2cc3c(-c4cccc(-n5ccc6cc(C7CC7)cc(F)c6c5=O)c4CO)ccc(C(N)=O)c3[nH]2)cn1` [A.15.1] it is < 100 nM; for `Cc1c(NC(=O)c2ccc(C(C)(C)C)cc2)cccc1-c1ccc(C(N)=O)c2[nH]ccc12` [A.5.6] it is 1000 to 10000 nM.
The same measure, in the same setting: next, `C=CC(=O)Nc1cccc(-c2ccc(C(N)=O)c3[nH]c(-c4cncnc4)cc23)c1C` [A.1.10]: < 100 nM; `C=CC(=O)Nc1cccc(-c2ccc(C(N)=O)c3[nH]ncc23)c1` [Example 18, 4-(3-Acrylamidophenyl)-1H-indazole-7-carboxamide]: < 100 nM.
